Where two headings read alike, the source gives them in different places.
Key:
[1] = test system: Proteus mirabilis (PMI) isolates; assay: microbe, parasite or virus in culture; type: cell-based; conditions: for MIC: Proteus mirabilis, read-out: MIC
Method in brief: (§1)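 Compound MIC, and antibacterial MIC at each fixed compound level, taken by visual inspection as lowest concentration stopping growth. Inoculum: log-phase bacteria, final 5·10^5 CFU/mL, cation-adjusted Mueller-Hinton broth; 16-20 h, 35° C, ambient air.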

[2] = test system: Citrobacter freundii (CFR) isolates; assay: MIC of compounds alone and combined with antibacterials, broth microdilution (CLSI); type: cell-based; conditions: for MIC: Citrobacter freundii, read-out: MIC
Method in brief: as §1

## C=CC1=C(C(=O)O)N2C(=O)[C@@H](NC(=O)/C(=N\OCC(=O)O)c3csc(N)n3)[C@H]2SC1 [FIX, Cefixime]
[1]; PMI UFR82, AF1 @ 4 μg/mL
  MIC ATB in combination: <=0.25 μg/mL
[1]; PMI UFR82, AF1 @ 8 μg/mL
  MIC ATB in combination: <=0.25 μg/mL
[1]; PMI UFR120, AF1 @ 4 μg/mL
  MIC ATB in combination: <=0.25 μg/mL
[1]; PMI UFR120, AF1 @ 8 μg/mL
  MIC ATB in combination: <=0.25 μg/mL
[1]; PMI UFR121, AF1 @ 4 μg/mL
  MIC ATB in combination: <=0.25 μg/mL
[1]; PMI UFR121, AF1 @ 8 μg/mL
  MIC ATB in combination: <=0.25 μg/mL
[1]; PMI UFR122, AF1 @ 4 μg/mL
  MIC ATB in combination: <=0.25 μg/mL
[1]; PMI UFR122, AF1 @ 8 μg/mL
  MIC ATB in combination: <=0.25 μg/mL
[1]; PMI UFR123, AF1 @ 4 μg/mL
  MIC ATB in combination: <=0.25 μg/mL
[1]; PMI UFR123, AF1 @ 8 μg/mL
  MIC ATB in combination: <=0.25 μg/mL
[1]; PMI UFR124, AF1 @ 4 μg/mL
  MIC ATB in combination: <=0.25 μg/mL
[1]; PMI UFR124, AF1 @ 8 μg/mL
  MIC ATB in combination: <=0.25 μg/mL
[1]; PMI UFR125, AF1 @ 4 μg/mL
  MIC ATB in combination: <=0.25 μg/mL
[1]; PMI UFR125, AF1 @ 8 μg/mL
  MIC ATB in combination: <=0.25 μg/mL
[1]; PMI UFR126, AF1 @ 4 μg/mL
  MIC ATB in combination: 0.031 µg/mL
[1]; PMI UFR126, AF1 @ 8 μg/mL
  MIC ATB in combination: 0.016 µg/mL
[1]; PMI UFR127, AF1 @ 4 μg/mL
  MIC ATB in combination: <=0.25 μg/mL
[1]; PMI UFR127, AF1 @ 8 μg/mL
  MIC ATB in combination: <=0.25 μg/mL
[1]; PMI UFR129, AF1 @ 4 μg/mL
  MIC ATB in combination: <=0.25 μg/mL
[1]; PMI UFR129, AF1 @ 8 μg/mL
  MIC ATB in combination: <=0.25 μg/mL
[1]; PMI UFR130, AF1 @ 4 μg/mL
  MIC ATB in combination: <=0.25 μg/mL
[1]; PMI UFR130, AF1 @ 8 μg/mL
  MIC ATB in combination: <=0.25 μg/mL
[1]; PMI UFR237, AF1 @ 4 μg/mL
  MIC ATB in combination: <=0.25 μg/mL
[1]; PMI UFR237, AF1 @ 8 μg/mL
  MIC ATB in combination: <=0.25 μg/mL
[1]; PMI UFR126, alone
  MIC: 1020 µg/mL
[1]; PMI UFR127, alone
  MIC: > 128 µg/mL
[1]; strain PMI UFR82 (CMY-2), ATB alone
  MIC: 8 µg/mL
[1]; strain PMI UFR82 (CMY-2), CLA @ 4 μg/ml+ ATB
  MIC: 4 µg/mL
[1]; strain PMI UFR120 (TEM-1, SHV-11, CTX-M-14), ATB alone
  MIC: 0.5 µg/mL
[1]; strain PMI UFR120 (TEM-1, SHV-11, CTX-M-14), CLA @ 4 μg/ml+ ATB
  MIC: ≤ 0.25 µg/mL
[1]; strain PMI UFR121 (TEM-1, TEM-52), ATB alone
  MIC: 128 µg/mL
[1]; strain PMI UFR121 (TEM-1, TEM-52), CLA @ 4 μg/ml+ ATB
  MIC: ≤ 0.25 µg/mL
[1]; strain PMI UFR122 (TEM-1, CTX-M-15), ATB alone
  MIC: 1 µg/mL
[1]; strain PMI UFR122 (TEM-1, CTX-M-15), CLA @ 4 μg/ml+ ATB
  MIC: ≤ 0.25 µg/mL
[1]; strain PMI UFR123 (CTX-M-1), ATB alone
  MIC: 128 µg/mL
[1]; strain PMI UFR123 (CTX-M-1), CLA @ 4 μg/ml+ ATB
  MIC: ≤ 0.25 µg/mL
[1]; strain PMI UFR124 (CTX-M-2), ATB alone
  MIC: > 128 µg/mL
[1]; strain PMI UFR124 (CTX-M-2), CLA @ 4 μg/ml+ ATB
  MIC: ≤ 0.25 µg/mL
[1]; strain PMI UFR125 (CTX-M-71), ATB alone
  MIC: 0.5 µg/mL
[1]; strain PMI UFR125 (CTX-M-71), CLA @ 4 μg/ml+ ATB
  MIC: ≤ 0.25 µg/mL
[1]; strain PMI UFR126 (TEM-2, PER-1), ATB alone
  MIC: 1020 µg/mL
[1]; strain PMI UFR126 (TEM-2, PER-1), CLA @ 4 μg/ml+ ATB
  MIC: ≤ 0.25 µg/mL
[1]; strain PMI UFR127 (VEB-1), ATB alone
  MIC: > 128 µg/mL
[1]; strain PMI UFR127 (VEB-1), CLA @ 4 μg/ml+ ATB
  MIC: ≤ 0.25 µg/mL
[1]; strain PMI UFR129 (TEM-1, VEB-6), ATB alone
  MIC: > 128 µg/mL
[1]; strain PMI UFR129 (TEM-1, VEB-6), CLA @ 4 μg/ml+ ATB
  MIC: ≤ 0.25 µg/mL
[1]; strain PMI UFR130 (CMY-2), ATB alone
  MIC: 8 µg/mL
[1]; strain PMI UFR130 (CMY-2), CLA @ 4 μg/ml+ ATB
  MIC: 8 µg/mL
[1]; strain PMI UFR237 (VEB-6), ATB alone
  MIC: > 128 µg/mL
[1]; strain PMI UFR237 (VEB-6), CLA @ 4 μg/ml+ ATB
  MIC: ≤ 0.25 µg/mL
[2]
  MIC ATB in combination: >128 µg/mL
[2]; CFR UFR10, AF1 @ 4 μg/mL
  MIC ATB in combination: <=0.25 μg/mL
[2]; CFR UFR10, AF1 @ 8 μg/mL
  MIC ATB in combination: <=0.25 μg/mL
[2]; CFR UFR11, AF1 @ 4 μg/mL
  MIC ATB in combination: 8 µg/mL
[2]; CFR UFR11, AF1 @ 8 μg/mL
  MIC ATB in combination: 4 µg/mL
[2]; CFR UFR83, AF1 @ 8 μg/mL
  MIC ATB in combination: 128 µg/mL
[2]; CFR UFR146, AF1 @ 4 μg/mL
  MIC ATB in combination: 1 µg/mL
[2]; CFR UFR146, AF1 @ 8 μg/mL
  MIC ATB in combination: 1 µg/mL
[2]; CFR UFR248, AF1 @ 4 μg/mL
  MIC ATB in combination: <=0.25 μg/mL
[2]; CFR UFR248, AF1 @ 8 μg/mL
  MIC ATB in combination: <=0.25 μg/mL
[2]; CFR UFR249, AF1 @ 4 μg/mL
  MIC ATB in combination: <=0.25 μg/mL
[2]; CFR UFR249, AF1 @ 8 μg/mL
  MIC ATB in combination: <=0.25 μg/mL
[2]; CFR UFR250, AF1 @ 4 μg/mL
  MIC ATB in combination: <=0.25 μg/mL
[2]; CFR UFR250, AF1 @ 8 μg/mL
  MIC ATB in combination: <=0.25 μg/mL
[2]; ATB alone, strain CFR UFR253 (TEM-1, SHV-12, OXA-48)
  MIC: > 128 µg/mL
[2]; ATB alone, strain CFR UFR254 (VEB-1b, OXA-48, qnrA)
  MIC: 32 µg/mL
[2]; ATB combined with CLA @ 4 μg/ml, strain CFR UFR253 (TEM-1, SHV-12, OXA-48)
  MIC: > 128 µg/mL
[2]; ATB combined with CLA @ 4 μg/ml, strain CFR UFR254 (VEB-1b, OXA-48, qnrA)
  MIC: 16 µg/mL
[2]; CFR UFR250, alone
  MIC: > 128 µg/mL
[2]; strain CFR UFR10 (OXA-48), ATB alone
  MIC: > 128 µg/mL
[2]; strain CFR UFR10 (OXA-48), CLA @ 4 μg/ml+ ATB
  MIC: 32 µg/mL
[2]; strain CFR UFR11 (TEM-1, OXA-1, OXA-48), ATB alone
  MIC: 32 µg/mL
